Seven compounds from US8017400B2 (priority 2005, dated 2011) can be followed below.

“And” between values parts separate entries of the source, which are not always exact repeats. Equal values may be shown once. Read-outs that look alike come from different tables or passages of the source.

For orientation: IC50 means the concentration at which inhibition is half-maximal. A low value points to greater potency in that assay. The term inhibition denotes the change of the read-out against control, counted positive when it falls.

The target in test [1] is T1, wild-type ALS (GST fusion wild-type ALS) (Oryza sativa subsp. japonica, UniProt Q6K2E8).
T1 construct: made in house; host or cells: Escherichia coli (pGEX-2T)
T1 sequence (Q6K2E8 44-644): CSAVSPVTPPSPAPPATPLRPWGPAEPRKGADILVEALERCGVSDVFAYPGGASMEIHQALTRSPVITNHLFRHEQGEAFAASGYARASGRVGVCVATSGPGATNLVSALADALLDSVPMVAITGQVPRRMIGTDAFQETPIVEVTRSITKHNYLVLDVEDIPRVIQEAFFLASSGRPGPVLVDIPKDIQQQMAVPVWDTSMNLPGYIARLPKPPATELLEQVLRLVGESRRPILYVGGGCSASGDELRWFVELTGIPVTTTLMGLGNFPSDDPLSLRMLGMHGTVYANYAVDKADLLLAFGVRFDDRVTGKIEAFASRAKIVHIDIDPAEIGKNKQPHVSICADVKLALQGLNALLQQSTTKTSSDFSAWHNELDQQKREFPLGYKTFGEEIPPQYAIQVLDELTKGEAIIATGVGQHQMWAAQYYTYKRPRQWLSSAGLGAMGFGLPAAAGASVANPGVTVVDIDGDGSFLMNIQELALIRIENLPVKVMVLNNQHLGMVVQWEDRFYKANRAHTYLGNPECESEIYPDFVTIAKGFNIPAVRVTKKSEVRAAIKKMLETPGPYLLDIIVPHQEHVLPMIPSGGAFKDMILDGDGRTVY
Put plainly: Inhibition of expressed GST fusion wild-type ALS activity by herbicides. In kind it is biochemical, rice. The protocol:
(§1) The Escherichia coli transformed with pGEX-2T having a G95A mutant ALS gene prepared in Example 6 and the same transformed with pGEX-2T (see WO02/44385A1) having a wild-type ALS gene were each shake-cultured (preculture) in 2 ml of LB liquid medium containing ampicillin at 27° C. They were each cultured in 250 ml of LB liquid medium containing ampicillin using 1 ml of the preculture solution. After overnight culture, 1 mM IPTG was added and they were further cultured for 3 to 4 hours. Thus, the expression of the GST fusion protein was induced. In addition, microbial bodies were washed with an ALS extraction buffer (potassium phosphate buffer (pH 7.5) containing 30% glycerol and 0.5 mM MgCl2) and then stored at −80° C.
(§2) Preparation and purification of ALS from Escherichia coli were performed by the following method. First, a pellet of the Escherichia coli stored at −80° C. was suspended in an ALS extraction buffer. (2.5 ml of the ALS extraction buffer was added to the pellet obtained from 50 ml of the culture solution.) The suspension was subjected to ultrasonication (Heat Systems-Ultrasonics, Sonicator W-225R, micro chip, output control 8, intervals of approximately 1 second, and twice every 40 seconds), and then centrifuged at 15000×g and 4° C. for 20 minutes, thereby obtaining the supernatant as a crude enzyme solution. Therefore, a crude enzyme solution of the GST fusion G95A mutant ALS protein and a crude enzyme solution of the GST fusion wild-type ALS protein were prepared.
(§3) A reaction solution to be used for the reaction for activity determination was prepared by mixing GST fusion ALS to be subjected to activity determination with a solution comprising 20 mM sodium pyruvate, 0.5 mM thiamine pyrophosphate, 0.5 mM MgCl2, 10 μM flavin adenine dinucleotide, 10 mM valine (added for the inhibition of activity of ALS derived from Escherichia coli), and 20 mM potassium phosphate buffer (pH 7.5). 0.5 ml of the reaction solution was used. The reaction was performed at 37° C. for 30 minutes after addition of GST fusion ALS to be subjected to activity determination. The reaction was stopped by the addition of 0.05 ml of 6 N sulfuric acid. After the completion of the reaction, the reaction solution was subjected to incubation at 37° C. for 60 minutes, so that acetolactic acid contained in the reaction solution was converted into acetoin. Subsequently, to quantify acetoin contained in the reaction solution, 0.05 ml of 0.5% (w/v) creatine and 0.05 ml of 5% (w/v) α-naphthol dissolved in 2.5 N sodium hydroxide were added, followed by 10 minutes of incubation at 37° C. Acetoin was then quantified by color comparison of the absorbance at 525 nm of the reaction solution, thereby evaluating ALS activity. The value at reaction time 0 (hours) was used as a control value. When the herbicide inhibition activity was examined, aqueous solutions of bispyribac-sodium and pyrithiobac-sodium were each prepared at a 100-fold concentration and then added to the reaction solution. In the case of pyriminobac, chlorsulfuron, bensulfuron-methyl, imazaquin, and imazapyr having low water solubility, an acetone solution was prepared for each thereof at a 100-fold concentrations and then added to the reaction solution.
The 50% inhibitory concentration of each herbicide against G95A mutant ALS was compared with the 50% inhibitory concentration of the herbicide against wild-type ALS (GST fusion wild-type ALS), so that the herbicide resistance ratio (RS ratio) of the 50% inhibitory concentration against G95A mutant ALS to that against wild-type ALS was calculated. The RS ratios in the cases of bispyribac-sodium, pyrithiobac-sodium, and pyriminobac were 16,000:1 or more, 9, 100:1 or more, and 13,000:1 or more, respectively. In contrast, the RS ratios in the cases of chlorsulfuron, bensulfuron-methyl, imazaquin, and imazapyr were 0.19:1, 40:1, 0.82:1, and 4.9:1, respectively. […]

The subject of test [2] is G95A mutant ALS. Put plainly: Inhibition of expressed GST fusion G95A mutant ALS activity by herbicides. In kind it is biochemical, rice. Particulars: 50% inhibitory concentration against G95A mutant ALS to that against wild-type ALS. As for the experimental part: as §1, §2, §3
(§4) The inhibition activity of various ALS inhibitors against the thus expressed G95A mutant ALS was examined.

In test [3] the target is T2, G95A mutant ALS (Oryza sativa subsp. japonica, UniProt Q6K2E8, G95A).
T2 construct: made in house; host or cells: Escherichia coli (pGEX-2T)
T2 sequence (Q6K2E8 44-644 G95A): as the sequence (Q6K2E8 44-644) above, with G52A counted along it
The description is as above. In kind it is biochemical, rice. As for the experimental part:
as §1, §2, §3, §4

In test [4] the test system is plants of wild-type Taichung 65. Put plainly: Bispyribac-sodium resistance test on rooting medium, wild-type control. In kind it is in vivo, rice. Particulars: wild-type Taichung 65, 2 weeks after seeding; observed 1 and 2 weeks after transplantation. The protocol:
(§5) The two lines of plants selected by the above method were designated the G95A-1 line and the G95A-2 line. Since they were albino plants, they were cultured on MS medium and then multiplied by division. To test the degree of resistance to bispyribac-sodium, clone plants divided from the G95A-1 line were transplanted on rooting media (Table 3) containing 0 μM, 1 μM, 5 μM, 10 μM, or 20 μM bispyribac-sodium (FIG. 3A: on the left in each Petri dish, observed as white because they were albino). Clone plants of the G95A-2 line (the number of these clone plants is a few) were tested using 5 μM bispyribac-sodium alone. Plants of wild-type Taichung 65 in 2 weeks after seeding were used as members of a control group (FIG. 3, on the right side in each Petri dish). Plant in 1 week (FIG. 3B) after transplantation and plant in 2 weeks (FIG. 3C) after transplantation were observed.

Test [5] concerns clone plants of the G95A-1 line and the G95A-2 line. Kind of test: Bispyribac-sodium resistance test on rooting medium, G95A lines. The format is in vivo, rice. Particulars: G95A-1 line at 1, 5, 10, 20 μM, G95A-2 line at 5 μM; observed 1 and 2 weeks after transplantation. The protocol: as §5
Where [6] appears, read: 50% inhibitory concentration (μM) G95A mutant, G95A mutant ALS (Table 5).
The mark [7] stands for this setting: 50% inhibitory concentration, Average, G95A mutant ALS, average of determinations (Table 4).
The mark [8] stands for this setting: 50% inhibitory concentration, G95A mutant ALS, single determinations (First to Sixth).
Setting [9] is: read-out: inhibition % at 100 μM, Average, G95A mutant ALS, average of determinations.
The mark [10] stands for this setting: read-out: inhibition % at 100 μM, G95A mutant ALS, single determinations (First to Third).
Setting [11] is: read-out: inhibition activity at 100 μM, G95A mutant ALS.

As to `CC(C)C1(C)N=C(c2ncccc2C(=O)O)NC1=O` (stereo not shown) [Imazapyr, imazapyr], the IC50 in test [1] is 9600 nM; against G95A mutant ALS [3] (setting [6]), 47 µM; on G95A mutant ALS [3] (setting [7]) it was 46.8 µM; against G95A mutant ALS [3] (setting [8]), 46 µM and 44.6 µM and 49.7 µM. The “Resistance ratio (RS ratio)” value with G95A mutant ALS [2] is listed as 4.9. Also, the “inhibition activity against G95A mutant ALS (in words)” value (from here on “inhibition activity”) on G95A mutant ALS [3] (G95A mutant ALS) was “exerted inhibition activity”.
Regarding `CON=C(C)c1cccc(Oc2nc(OC)cc(OC)n2)c1C(=O)O` (mixture of isomers) [Pyriminobac, pyriminobac], the IC50 is 8 nM in test [1] and above 100 µM on G95A mutant ALS [3] (setting [6]). Besides, the “Resistance ratio (RS ratio)” value with G95A mutant ALS [2] is above 13000; with G95A mutant ALS [2] (listed as pyriminobac), ≥ 13,000. In addition, at G95A mutant ALS [3] (G95A mutant ALS, single determinations (First to Third), listed as PM), the “inhibition % at 100 μM” value is 23.3% and 29.2%. The inhibition at 100 µM is 25.1% on G95A mutant ALS [3] (setting [9]), 22.9% on G95A mutant ALS [3] (setting [10]) and at most 50% on G95A mutant ALS [3] (setting [11]).
On to `COc1cc(OC)nc(Oc2cccc(Oc3nc(OC)cc(OC)n3)c2C(=O)[O-])n1.[Na+]` [Bispyribac-sodium, bispyribac-sodium], for which the “effect on plants on bispyribac-sodium-containing rooting medium” value in test [4] is listed as “all the wild-type plants of the control group withered”. For the same compound, the IC50 is 6.3 nM in test [1] and above 100 µM at G95A mutant ALS [3] (setting [6]). Further, the “resistance / rooting on bispyribac-sodium-containing rooting medium” value in test [5] is given as “exerted resistance, with new rooting observed”. In addition, the “Resistance ratio (RS ratio)” value in the test with G95A mutant ALS [2] is above 16000; with G95A mutant ALS [2] (listed as bispyribac-sodium), ≥ 16,000. The “inhibition % at 100 μM” value on G95A mutant ALS [3] (G95A mutant ALS, single determinations (First to Third), listed as BS) is 16.8% and 18.4%. Also, the inhibition at 100 µM was 17.7% on G95A mutant ALS [3] (setting [9]), 17.9% on G95A mutant ALS [3] (setting [10]) and at most 50% on G95A mutant ALS [3] (setting [11]).
As to `COc1cc(OC)nc(Sc2cccc(Cl)c2C(=O)[O-])n1.[Na+]` [Pyrithiobac-sodium, pyrithiobac-sodium], the IC50 is 11 nM in test [1] and above 100 µM at G95A mutant ALS [3] (setting [6]). Besides, the “Resistance ratio (RS ratio)” value in the test on G95A mutant ALS [2] was above 9100. Besides, at G95A mutant ALS [3] (G95A mutant ALS, single determinations (First to Third), listed as PS), the “inhibition % at 100 μM” value is 12.8% and 18.1%. Moreover, the inhibition at 100 µM on G95A mutant ALS [3] (setting [9]) was 14.3%; at G95A mutant ALS [3] (setting [10]), 12.1%; on G95A mutant ALS [3] (setting [11]), at most 50%.
Consider `COc1nc(C)nc(NC(=O)NS(=O)(=O)c2ccccc2Cl)n1` [Chlorsulfuron, chlorsulfuron], for which the IC50 is 13 nM in test [1]; 0.0025 µM on G95A mutant ALS [3] (setting [6]); 0.0025 µM at G95A mutant ALS [3] (setting [7]); 0.0019 µM and 0.0023 µM and 0.003 µM and 0.0027 µM and 0.0028 µM and 0.0021 µM against G95A mutant ALS [3] (setting [8]). For the same compound, in the test with G95A mutant ALS [2], the “Resistance ratio (RS ratio)” value is recorded as 0.19. On G95A mutant ALS [3] (G95A mutant ALS), the “inhibition activity” value is given as “strong”.
With `CC(C)C1(C)N=C(c2nc3ccccc3cc2C(=O)O)NC1=O` (stereo not shown) [Imazaquin, imazaquin], the IC50 in test [1] is 2200 nM; on G95A mutant ALS [3] (setting [6]), 1.8 µM; against G95A mutant ALS [3] (setting [7]), 1.8 µM; on G95A mutant ALS [3] (setting [8]), 1.65 µM and 1.89 µM and 1.85 µM. Further, the “Resistance ratio (RS ratio)” value in the test with G95A mutant ALS [2] amounted to 0.82. In addition, at G95A mutant ALS [3] (G95A mutant ALS), the “inhibition activity” value was “exerted inhibition activity”.
`COC(=O)c1ccccc1CS(=O)(=O)NC(=O)Nc1nc(OC)cc(OC)n1` [Bensulfuron-methyl, bensulfuron-methyl]: the IC50 in test [1] is 7 nM; against G95A mutant ALS [3] (setting [6]), 0.28 µM; against G95A mutant ALS [3] (setting [7]), 0.278 µM; against G95A mutant ALS [3] (setting [8]), 0.268 µM and 0.294 µM and 0.271 µM. Also, the “Resistance ratio (RS ratio)” value in the test with G95A mutant ALS [2] is given as 40. For the same compound, the “inhibition activity” value against G95A mutant ALS [3] (G95A mutant ALS) is listed as “exerted inhibition activity”.
